Source: paper PMC4701221, “Novel Promising Estrogenic Receptor Modulators: Cytotoxic and Estrogenic Activity of Benzanilides and Dithiobenzanilides” (PLoS ONE, 2016)
Entries after “also recorded” stand apart in the source; their conditions may differ.

Legend:
[1] = MTT assay, MCF-12A; type: cell-based; details: human, MCF-12A cells (non-tumorigenic breast epithelial), read-out: Cytotoxic activity IC50, MCF-12A
Description: (§1) The cell lines used in the cytotoxicity study, besides MCF-12A, were purchased from European Collection of Cell Culture (ECACC, Salisbury, UK): HEK293 (human embryonic kidney, ATTC no. CRL-1573), A549 (Human lung carcinoma, ECACC no. 86012804), CCD39Lu (Human lung fibroblasts, ECACC no. 90110512), MCF-7 (Human breast adenocarcinoma, ECACC no. 86012803) and MDA-MB-231 (Human breast adenocarcinoma ECACC no. 92020424). Cell lines were cultured in DMEM medium without phenol red and supplemented with 10% (v/v) FBS, 1% penicillin-streptomycin and 1% L-glutamine. MCF-12A (ATTC no. […]) was purchased from American Type Culture Collection (ATCC Manassas, VA 20110 USA). MCF-12A cells were kept in 1:1 mixture of Dulbecco’s modified Eagle’s medium and Ham’s F12 medium, 20 ng/ml human epidermal growth factor, 100 ng/ml cholera toxin, 0.01 mg/ml bovine insulin, 500 ng/ml hydrocortisone and 5% horse serum. All cell lines were cultured at 37°C, in a humidified atmosphere containing 5% CO2.
(§2) Compounds were dissolved in DMSO to the final concentration of […]. A549, CCD39Lu, MCF-7, MDA-MB-231 and MCF-12A cells were seeded in 96 wells plates at density 2x10^4 cells/well and incubated overnight as described above. Subsequently, cells were treated with tested compounds at concentrations: 100 μM; 50 μM; 25μM; 12.5μM; 6 μM; 3 μM; 1.5 μM. […] Cells were incubated 72 h at 37°C in a humidified atmosphere containing 5% CO2 in the cell culture media appropriate for each cell line. Then, the medium was aspirated and 170 μl MTT solution (5mg/ml) was added to each well. Plates were incubated for 2 hours at 37°C, and then plates were centrifuged at 1200 rpm for 3 minutes. The formazan crystals were dissolved in 200 μl DMSO and plates were further agitated on a plate shaker at 300–500 rpm for 10 minutes. Absorbance at 570 nm (with reference wavelenght 650 nm) was measured using a plate reader (Biotek Instruments, Elx-800). Cell viability was calculated as a percentage relative to the control.

[2] = system: MCF-7 cells; assay: MTT assay, MCF-7; type: cell-based, human; details: for IC50: Homo sapiens, MCF7, 72 h, estrogen dependent breast adenocarcinoma, read-out: Cytotoxic activity IC50, MCF-7; for Activity in MTT assay (in words), MCF-7: 72 h
Description: as §1, §2

[3] = MTT assay, CCD39Lu; type: cell-based; details: human, CCD39Lu cells (non-tumorigenic lung fibroblasts), read-out: Cytotoxic activity IC50, CCD39Lu
Description: as §1, §2

[4] = system: MDA-MB-231 cells; assay: MTT assay, MDA-MB-231; type: cell-based, human; details: for IC50: Homo sapiens, MDA-MB-231, 72 h, estrogen independent breast adenocarcinoma, read-out: Cytotoxic activity IC50, MDA-MB-231
Description: as §1, §2

[5] = system: A549 cells; assay: MTT assay, A549; type: cell-based; details: Homo sapiens, 72 h, lung adenocarcinoma, read-out: Cytotoxic activity IC50, A549
Description: as §1, §2

[6] = molecular target: T1, human ERα receptor (Homo sapiens, UniProt P03372); assay: Estrogen Receptor luciferase assay in HEK293 cells transfected with ERα; type: cell-based; details: HEK293 transfected with ERα and luciferase reporter, compared with estradiol, Fig 3A/3B
T1 construct: host or cells: HEK293
T1 sequence (P03372 1-595): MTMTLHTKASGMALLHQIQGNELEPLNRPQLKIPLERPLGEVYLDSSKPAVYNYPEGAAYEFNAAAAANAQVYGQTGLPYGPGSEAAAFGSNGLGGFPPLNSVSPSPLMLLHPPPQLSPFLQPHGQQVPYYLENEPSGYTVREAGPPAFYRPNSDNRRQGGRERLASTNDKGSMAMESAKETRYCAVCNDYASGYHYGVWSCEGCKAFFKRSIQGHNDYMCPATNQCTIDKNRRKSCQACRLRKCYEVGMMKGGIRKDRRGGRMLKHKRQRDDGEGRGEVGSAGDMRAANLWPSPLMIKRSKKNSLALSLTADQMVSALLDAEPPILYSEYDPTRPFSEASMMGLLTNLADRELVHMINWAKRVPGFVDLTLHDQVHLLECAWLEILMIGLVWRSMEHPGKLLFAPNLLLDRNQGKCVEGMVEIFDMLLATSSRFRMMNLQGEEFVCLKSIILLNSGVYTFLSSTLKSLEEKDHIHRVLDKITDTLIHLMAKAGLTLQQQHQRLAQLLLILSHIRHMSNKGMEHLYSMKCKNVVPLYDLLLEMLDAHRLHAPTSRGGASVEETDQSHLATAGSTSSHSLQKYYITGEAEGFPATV
Text: (§3) To obtain a eukaryotic vector expressing only the ER-α nuclear receptor, a construct was designed by cloning a KpnI-BamHI fragment from plasmid pEGFP-C1-ERα containing the ERα coding sequence that includes a stop signal into the pEGFP-N3 plasmid (Clontech Laboratories, Palo Alto, CA) under the control of the CMV promoter. This construction was termed pEGFP-N-ERα, and although it encoded both human ERα receptor and GFP protein, only the former is expressed. For mock transfections, pEGFP-N3 plasmid was digested with BglII and NotI and religated after polishing DNA ends to remove GFP coding sequence. Plasmid sequence was confirmed by automatic sequencing. Prior to transfection, cells were seeded in 48 well plates at density of 1.5 x 10^4 cells/well and incubated for 24 h to reach a cell confluence of 80–90%. […] MCF-7 cells, which endogenously express ERα receptor, were transfected with p3xERRE/ERE-luciferase plus the pRLTK Renilla luciferase control plasmid (95:5). Firefly and Renilla luciferase activities were measured using the Dual Luciferase Assay System (Promega, Madison, WI, USA), following a standard protocol using a Sirius L luminometer (Berthold Technologies, Bad Wildbad, Germany). Data were expressed as relative changes in luciferase activity and normalized to 100%.

[7] = molecular target: T2, estrogen receptor (Homo sapiens, UniProt P03372); assay: Estrogen Receptor luciferase assay in MCF-7 cells (endogenous ER); type: cell-based; details: MCF-7 transfected with p3xERRE/ERE-luciferase, Fig 3C
T2 construct: MCF-7 cells, which endogenously express ERα receptor; endogenous in cells; host or cells: MCF-7
T2 sequence (P03372 1-595): T1 sequence (P03372 1-595)
Text: as §3

[8] = system: MCF-7 cells; assay: LDH release assay, MCF-7; type: cell-based, human; details: 72 h, Fig 2
Description: Cytotoxicity was evaluated by measuring the cell membrane permeability, using a LDH assay kit purchased from Cayman Chemical (Ann Arbor USA). The LDH assay was performed for MCF-7 and MDA-MB-231 cells (seeded at 2×10^4 density). As a positive control cell permeabilization with 1%Triton X-100 was used. The assay was performed 72h after start the incubation. Briefly, the plates were centrifuged at 400 ×g for 5 minutes, and 100 μL of supernatant were transferred from each well to the new 96-well plate and analyzed according to the manufacturer’s protocol. 100 μL of reaction mixture, containing lactic acid, NAD^+, tetrazolium salt and diaphorase, was added to each well. Plates were incubated on an orbital shaker for 30 minutes at room temperature and the absorbance at 490 nm was measured with a plate reader (Biotek Instruments, Elx-800). Results were expressed as a percentage of the total value of the positive control.

[9] = system: MCF-7 cells; assay: Sulphorodamine B assay, MCF-7; type: cell-based, human; details: 72 h, Fig 2
Description: In addition to the MTT assay, cell viability was measured by the Sulphorodamine B assay according to Vichai and Kirtikara. The MCF-7 and MDA-MB-23 cells were seeded and treated as for the MTT assay. After incubation the medium was removed and the cells were fixed with cold (4°C) trichloroacetic acid (final concentration 10%) for 1h. Than plates were washed 4 times with water and stained for 30 min, following by staining with sulforhodamine B (SRB) 0.4% in 1% acetic acid solution at room temperature for 20 min. After staining, the SRB solution was removed and the plates washed 5 times with 1% acetic acid dried. Bound SRB was solubilized with 200 μl 10 mM unbuffered Tris-base solution and plates were shaked for 10 min. The absorbance at 510 nm was measured using a plate reader (Biotek Instruments, Elx-800).

Structure (SMILES)	IC50 at 72 h [1] [µM]	IC50 [2] [µM]	IC50 at 72 h [3] [µM]	IC50 [4] [µM]	IC50 [5] [µM]	Activity in MTT assay (in words), MCF-7 [2]	ER dependent transcriptional activity [6]	Transcriptional (luciferase) activity in MCF-7 [7]	Toxicity/effect in MTT assay (in words), MDA-MB-231 ([4]; 72 h)	LDH release, MCF-7 [8]	Effect in SRB assay, MCF-7 [9]
COc1ccc(NC(=O)c2ccccc2[N+](=O)[O-])cc1 [Compound 1]	> 100	74.9	96.3	79.8	92.4						
COc1ccc(NC(=O)c2ccc(F)cc2[N+](=O)[O-])cc1 [Compound 2]	> 100	38.3	45.2	39.7	47.6	significant activity	did not stimulate ER dependent transcriptional activity				
COc1ccc(NC(=O)c2cc(Cl)ccc2[N+](=O)[O-])cc1 [Compound 3]	> 100	> 100	> 100	> 100	> 100						
COc1ccc(NC(=O)c2ccc(OC)cc2[N+](=O)[O-])cc1 [Compound 4]	> 100	28.4	48.8	67	30.1	significant activity	did not stimulate ER dependent transcriptional activity				
COc1ccc(NC(=O)c2cc(C)c(C)cc2[N+](=O)[O-])cc1 [Compound 5]	> 100	> 100	> 100	92	> 100						
COc1cc(NC(=O)c2cc(C)c(C)cc2[N+](=O)[O-])cc(OC)c1OC [Compound 6]	> 100	24.7	> 100	> 100	> 100	significant activity	capable to mediate ER dependent transcriptional activity in a similar mode than estradiol	much lower			
COc1cc(NC(=O)c2ccccc2[N+](=O)[O-])cc(OC)c1OC [Compound 7]	> 100	> 100	> 100	> 100	93.1						
O=C(Nc1cc(F)c(F)c(F)c1)c1ccccc1[N+](=O)[O-] [Compound 8]	> 100	> 100	> 100	> 100	> 100						
O=C(Nc1ccccc1C(=O)Nc1cc(F)c(F)c(F)c1)c1cc(F)c(F)c(F)c1 [Compound 9]	> 100	> 100	> 100	> 100	> 100						
Fc1cc(NC(=S)c2ccccc2NC(=S)c2cc(F)c(F)c(F)c2)cc(F)c1F [Compound 10]	1.22	0.37	0.76	0.52	0.41	significant activity			significant degree of toxicity		
O=C(Nc1cc(F)c(F)c(F)c1F)c1ccccc1NC(=O)c1cc(F)c(F)c(F)c1F [Compound 12]	> 100	> 100	61.4	40.1	> 100		did not stimulate ER dependent transcriptional activity				
COc1cc(NC(=S)c2ccccc2NC(=S)c2cc(OC)c(OC)c(OC)c2)cc(OC)c1OC [Compound 13]	> 100	> 100	> 100	> 100	> 100						
COc1ccc(NC(=S)c2cccc(NC(=S)c3ccc(OC)cc3)c2)cc1 [Compound 15]	> 100	17.7	> 100	> 100	> 100	significant activity; also recorded: strong effect	capable to mediate ER dependent transcriptional activity in a similar mode than estradiol			relatively low increase	strong effect
COc1cc(NC(=S)c2ccc(NC(=S)c3cc(OC)c(OC)c(OC)c3)cc2)cc(OC)c1OC [Compound 16]	> 100	69.8	6.48	30	> 100		did not stimulate ER dependent transcriptional activity				
COc1ccc(NC(=O)c2ccc(NC(=O)c3ccc(OC)cc3)cc2)cc1 [Compound 17]	> 100	> 100	> 100	> 100	> 100						
COc1ccc(NC(=O)c2ccccc2NC(=O)COC(C)=O)cc1 [Compound 19]	> 100	> 100	47.9	> 100	72.4						
COc1cc(NC(=S)c2cccc(NC(=S)c3cc(OC)c(OC)c(OC)c3)c2)cc(OC)c1OC [Compound 20]	> 100	> 100	> 100	> 100	> 100						
